# Measurements published in patent US8962600B2, “Neuroprotective compounds and their use” (The Medical College of Wisconsin, Inc., priority 2009, dated 2015).
# What was measured:
# p67phox = assay: LPS-induced p67phox protein expression in BV2 cells, Western blot; type: cell-based, mouse; conditions: diapocynin 10 μM 30 min pretreatment, LPS 1 μg/ml 24 hr, back to basal level or below
# Experimental: Two cell models of neuroinflammation were used to evaluate the anti-neuroinflammatory property of diapocynin including the mouse BV2 microglial cell line, as well as primary microglia isolated from mouse brains. BV2 cells were obtained from the American Tissue Culture Collection. BV2 cells were maintained in RPMI containing 10% FBS and 100 units of pen/strep at 37° C. and 5% CO2. For treatments, RPMI containing 2% FBS and 100 units of pen/strep was used.
# BV2 cell lysates containing equal amounts of protein were loaded in each lane and separated on a 10% SDS-PAGE gel. After separation, the protein was transferred to a nitrocellulose membrane. Non-specific binding sites were blocked with Li-cor blocking buffer for 45 min. The membranes were then treated with primary antibodies directed against NOS2 (mouse monoclonal 1:200) and p67phox (rabbit polyclonal 1:200). To confirm equal amounts of protein were loaded, membranes were also probed for β-actin with a β-actin antibody (dilution of 1:10,000). Secondary antibodies, donkey anti-mouse (Invitrogen) and conjugated anti-rabbit IgG (Rockland), were used at a dilution of 1:10,000 for 1 hr at room temperature. The membranes were imaged and captured using a Li-COR Odyssey infrared imaging system and software.
# GFAP = GFAP expression in substantia nigra (astroglial activation), immunostaining; type: in vivo, C57BL/6 mice; conditions: diapocynin 300 mg/kg gavage, 1 day pre-treatment + 4 days co-treatment with MPTP 25 mg/kg i.p.
# Experimental: (§1) For checking inflammatory and oxidative stress markers, mice were gavaged diapocynin (300 mg/kg dose) 1 day before MPTP treatment (pre-treatment) and continued for another 4 days of co-treatment with MPTP. In the sub-acute MPTP regimen, MPTP (25 mg/kg) was injected intraperitoneally once per day from day 2 to day 7. Control mice received saline at the same dosage.
# (§2) Four days after MPTP treatment, mice were perfused with 4% paraformaldehyde (PFA) and post-fixed with PFA and 30% sucrose, respectively. Next, fixed brains were cut into 30 μm sections and kept in 30% sucrose-ethylene glycol solutions at −20° C. On the day of staining, sections were rinsed with phosphate-buffered saline (PBS) and incubated with different primary antibodies, including anti-IBA-1 (DAKO, Carpinteria, Calif.), anti-GFAP (Millipore, Billerica, Mass.), anti-iNOS (Santa Cruz Biotechnology, Santa Cruz, Calif.), anti-3NT (Millipore), anti-4HNE (R&D Systems, Minneapolis, Minn.) and anti-gp91phox (Santa Cruz Biotechnology) for overnight at 4° C. Appropriate secondary antibodies (Alexa Fluor 488, 594, or 555 from Invitrogen, Carlsbad, Calif.) were used followed by incubation with 10 μg/ml Hoechst 33342 for 5 min at room temperature to stain the nucleus. Sections were viewed under a Nikon inverted fluorescence microscope (model TE-2000U; Nikon, Tokyo, Japan). […]
# gp91phox = gp91phox expression in substantia nigra, Western blot and DAB immunostaining; type: in vivo, C57BL/6 mice
# Experimental: as §1, §2
# IBA-1 = IBA-1 expression in substantia nigra (microglial activation), immunostaining; type: in vivo, C57BL/6 mice; conditions: diapocynin 300 mg/kg gavage, 1 day pre-treatment + 4 days co-treatment with MPTP 25 mg/kg i.p.
# Experimental: as §1, §2
compound,measurement,setting,value
COc1cc(C(C)=O)cc(-c2cc(C(C)=O)cc(OC)c2O)c1O [diapocynin],reducing LPS-induced p67phox protein expression,p67phox,extremely effective
same,GFAP protein expression in substantia nigra,GFAP,inhibition
same,MPTP-induced expression of gp91phox in substantia nigra,"gp91phox; diapocynin 300 mg/kg gavage, MPTP 25 mg/kg i.p., Western blot and DAB immunostaining",attenuated
same,colocalization of gp91phox with IBA-1 positive cells,"gp91phox; double-labeling, mice treated with MPTP and diapocynin 300 mg/kg",no colocalization
same,IBA-1 protein expression in substantia nigra,IBA-1,inhibition
